Tests used:
[1] = biological target: GDP-bound NRAS wild-type protein (Homo sapiens, UniProt P01111); assay: Binding to NRAS by surface plasmon resonance (SPR), KD and KD ratio to KRAS; conditions: ratio of KD with respect to GDP-bound NRAS wild-type protein to KD with respect to KRAS
Procedure, shortened: (§1)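 GDP-loaded biotinylated Avi-tag RAS proteins (E. coli-expressed) captured on a Biotin CAPture chip at ~100–300 RU; single-cycle kinetics at 30°C, 100 µL/min, 75 s injections of rising compound concentrations. HBS pH 7.4 running buffer with 1 mM DTT, 10 mM MgCl2, 10 µM GDP, 4% DMSO. KD from 1:1 binding fit.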

[2] = biological target: GDP-bound KRAS wild-type protein (Homo sapiens, UniProt P01116); assay: Binding to KRAS by surface plasmon resonance (SPR), dissociation constant KD; conditions: Single Cycle Kinetics, 1:1 binding model
GDP-bound KRAS wild-type protein, sequence (P01116 1-188 isoform P01116-2): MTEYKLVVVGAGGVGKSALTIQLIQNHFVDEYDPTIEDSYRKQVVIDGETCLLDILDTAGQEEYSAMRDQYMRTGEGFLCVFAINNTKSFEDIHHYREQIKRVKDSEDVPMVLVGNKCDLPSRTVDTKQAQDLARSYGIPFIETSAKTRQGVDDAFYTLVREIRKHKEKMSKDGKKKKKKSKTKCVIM
Procedure, shortened: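 Captured GDP-RAS (~100–300 RU) was exposed to increasing compound concentrations, 75 s per step, in running buffer with 10 µM GDP, 10 mM MgCl2 and 4% DMSO at pH 7.4.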

[3] = tested on: human lung cancer strain NCI-H441; assay: NCI-H441 cell proliferation inhibitory activity (CellTiter-Glo, 4 days); assay type: cell-based; conditions: 50% proliferation inhibitory concentration, four days, read-out: NCl-H441 IC50
Procedure, shortened: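 Readout: […] after the ATP-based reagent. Compound: serial dilutions in dimethyl sulfoxide.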

[4] = biological target: HRAS wild-type protein (Homo sapiens, UniProt P01112); assay: Binding to HRAS by surface plasmon resonance (SPR), KD and KD ratio to KRAS; conditions: ratio of KD with respect to HRAS wild-type protein to KD with respect to KRAS
HRAS wild-type protein, sequence (P01112 whole entry): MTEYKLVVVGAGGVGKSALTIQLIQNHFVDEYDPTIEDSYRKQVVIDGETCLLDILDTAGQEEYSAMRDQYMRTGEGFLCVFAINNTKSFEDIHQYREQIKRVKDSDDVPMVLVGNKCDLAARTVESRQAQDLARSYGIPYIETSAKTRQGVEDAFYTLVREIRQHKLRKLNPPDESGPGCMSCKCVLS
Procedure, shortened: as §1

GDP-bound NRAS wild-type protein, sequence (P01111 whole entry): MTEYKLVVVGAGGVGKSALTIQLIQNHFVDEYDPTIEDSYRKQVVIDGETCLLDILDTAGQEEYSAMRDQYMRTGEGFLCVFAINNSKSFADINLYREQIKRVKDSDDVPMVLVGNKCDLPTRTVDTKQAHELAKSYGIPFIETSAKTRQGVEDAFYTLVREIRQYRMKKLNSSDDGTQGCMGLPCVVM

| Structure (SMILES) | NRAS /KRAS [1] | Kd [2] | IC50 [3] | HRAS /KRAS [4] |
| --- | --- | --- | --- | --- |
| CCO[C@@H]1C[C@H]2C(=O)NC3(CCCC3)C(=O)N(C)[C@@H](C3CCCC3)C(=O)N(C)[C@H](C(=O)N(C)C)CC(=O)N(C)[C@@H](CC)C(=O)N[C@@H]([C@@H](C)CC)C(=O)N(C)CC(=O)N(C)[C@H]3C[C@@H](C)[C@@H](C)CN(C3=O)[C@@H](Cc3ccc(C(F)(F)F)cc3)C(=O)N(C)CC(=O)N[C@@H](CCc3ccc(C(F)(F)F)c(Cl)c3)C(=O)N2C1 [PP1358] | A (a compound having 10 or more and less than 20 is denoted as A) | 0.03 nM | 4.1 nM | B (a compound having 3 or more and less than 10 is denoted as B) |
| CCO[C@@H]1C[C@H]2C(=O)NC3(CCCC3)C(=O)N(C)[C@@H](C3CCCC3)C(=O)N(C)[C@H](C(=O)N3CCOCC3)CC(=O)N(C)[C@@H](CC)C(=O)N[C@@H]([C@@H](C)CC)C(=O)N(C)CC(=O)N(C)[C@H]3C[C@@H](C)[C@@H](C)CN(C3=O)[C@@H](Cc3ccc(C(F)(F)F)cc3)C(=O)N(C)CC(=O)N[C@@H](CCc3ccc(C(F)(F)F)c(Cl)c3)C(=O)N2C1 [PP1359] | A (a compound having 10 or more and less than 20 is denoted as A) | 0.068 nM | 3.2 nM | B (a compound having 3 or more and less than 10 is denoted as B) |
| CCO[C@@H]1C[C@H]2C(=O)NC3(CCC3)C(=O)N(C)[C@@H](C3CCCC3)C(=O)N(C)[C@H](C(=O)N3CCOCC3)CC(=O)N(C)[C@@H](CC)C(=O)N[C@@H]([C@@H](C)CC)C(=O)N(C)CC(=O)N(C)[C@H]3C[C@@H](C)[C@@H](C)CN(C3=O)[C@@H](Cc3ccc(C(F)(F)F)cc3)C(=O)N(C)CC(=O)N[C@@H](CCc3ccc(C(F)(F)F)c(Cl)c3)C(=O)N2C1 [PP1360] | A (a compound having 10 or more and less than 20 is denoted as A) | 0.055 nM | 4.9 nM | B (a compound having 3 or more and less than 10 is denoted as B) |
| CCO[C@@H]1C[C@H]2C(=O)NC3(CCC3)C(=O)N(C)[C@@H](C3CCCC3)C(=O)N(C)[C@H](C(=O)N3CCOCC3)CC(=O)N(C)[C@@H](CC(C)C)C(=O)N[C@@H]([C@@H](C)CC)C(=O)N3CC[C@H]3C(=O)N(C)[C@H]3C[C@@H](C)[C@@H](C)CN(C3=O)[C@@H](Cc3ccc(C(F)(F)F)cc3)C(=O)N(C)CC(=O)N[C@@H](CCc3ccc(C(F)(F)F)c(Cl)c3)C(=O)N2C1 [PP1361] | A (a compound having 10 or more and less than 20 is denoted as A) | 0.15 nM | 6.2 nM | B (a compound having 3 or more and less than 10 is denoted as B) |
| CCO[C@@H]1C[C@H]2C(=O)NC3(CCCC3)C(=O)N(C)[C@@H](C3CCCC3)C(=O)N(C)[C@H](C(=O)N(C)C)CC(=O)N(C)[C@@H](CC3CC3)C(=O)N[C@@H]([C@@H](C)CC)C(=O)N(C)CC(=O)N(C)[C@H]3C[C@@H](C)[C@@H](C)CN(C3=O)[C@@H](Cc3ccc(C(F)(F)F)cc3)C(=O)N(C)CC(=O)N[C@@H](CCc3ccc(C(F)(F)F)c(Cl)c3)C(=O)N2C1 [PP1362] | A (a compound having 10 or more and less than 20 is denoted as A) | 0.037 nM | 3.7 nM | B (a compound having 3 or more and less than 10 is denoted as B) |
| CC[C@H](C)[C@@H]1NC(=O)[C@H](CC)N(C)C(=O)C[C@@H](C(=O)N2CCOCC2)N(C)C(=O)[C@H](C2CCCC2)N(C)C(=O)C2(CCCC2)NC(=O)[C@@H]2CCCN2C(=O)[C@H](CCc2cc(F)c(C(F)(F)F)c(F)c2)NC(=O)CN(C)C(=O)[C@H](Cc2ccc(C(F)(F)F)cc2)N2C[C@H](C)[C@H](C)C[C@@H](C2=O)N(C)C(=O)CN(C)C1=O [PP1365] | A (a compound having 10 or more and less than 20 is denoted as A) | 0.13 nM | 4.2 nM | B (a compound having 3 or more and less than 10 is denoted as B) |
| CC[C@H](C)[C@@H]1NC(=O)[C@H](CC)N(C)C(=O)C[C@@H](C(=O)N2CCOCC2)N(C)C(=O)[C@H](C2CCCC2)N(C)C(=O)C2(CCC2)NC(=O)[C@@H]2CCCN2C(=O)[C@H](CCc2cc(F)c(C(F)(F)F)c(F)c2)NC(=O)CN(C)C(=O)[C@H](Cc2ccc(C(F)(F)F)cc2)N2C[C@H](C)[C@H](C)C[C@@H](C2=O)N(C)C(=O)CN(C)C1=O [PP1366] | A (a compound having 10 or more and less than 20 is denoted as A) | 0.11 nM | 14 nM | B (a compound having 3 or more and less than 10 is denoted as B) |
| CC[C@H](C)[C@@H]1NC(=O)[C@H](CC(C)C)N(C)C(=O)C[C@@H](C(=O)N2CCOCC2)N(C)C(=O)[C@H](C2CCCC2)N(C)C(=O)C2(CCC2)NC(=O)[C@@H]2CCCN2C(=O)[C@H](CCc2cc(F)c(C(F)(F)F)c(F)c2)NC(=O)CN(C)C(=O)[C@H](Cc2ccc(C(F)(F)F)cc2)N2C[C@H](C)[C@H](C)C[C@@H](C2=O)N(C)C(=O)[C@@H]2CCN2C1=O [PP1367] | A (a compound having 10 or more and less than 20 is denoted as A) | 0.34 nM | 29.3 nM | B (a compound having 3 or more and less than 10 is denoted as B) |
| CC[C@H](C)[C@@H]1NC(=O)[C@H](CC2CC2)N(C)C(=O)C[C@@H](C(=O)N(C)C)N(C)C(=O)[C@H](C2CCCC2)N(C)C(=O)C2(CCCC2)NC(=O)[C@@H]2CCCN2C(=O)[C@H](CCc2cc(F)c(C(F)(F)F)c(F)c2)NC(=O)CN(C)C(=O)[C@H](Cc2ccc(C(F)(F)F)cc2)N2C[C@H](C)[C@H](C)C[C@@H](C2=O)N(C)C(=O)CN(C)C1=O [PP1368] | A (a compound having 10 or more and less than 20 is denoted as A) | 0.061 nM | 2.9 nM | B (a compound having 3 or more and less than 10 is denoted as B) |
| CCO[C@@H]1C[C@H]2C(=O)NC3(CCCC3)C(=O)N(C)[C@@H](C3CCCC3)C(=O)N(C)[C@H](C(=O)N(C)C)CC(=O)N(C)[C@@H](CC)C(=O)N[C@@H]([C@@H](C)CC)C(=O)N(C)CC(=O)N(C)[C@H]3CC[C@@H](C)CN(C3=O)[C@@H](Cc3ccc(C(F)(F)F)cc3)C(=O)N(C)CC(=O)N[C@@H](CCc3cc(F)c(C(F)(F)F)c(F)c3)C(=O)N2C1 [PP1370] | C (A compound having a KD ratio of 0.1 or more and less than 3 is denoted as C) | 0.057 nM | 2.3 nM | C (A compound having a KD ratio of 0.1 or more and less than 3 is denoted as C) |
| CCO[C@@H]1C[C@H]2C(=O)NC3(CCCC3)C(=O)N(C)[C@@H](C3CCCC3)C(=O)N(C)[C@H](C(=O)N3CCOCC3)CC(=O)N(C)[C@@H](CC)C(=O)N[C@@H]([C@@H](C)CC)C(=O)N(C)CC(=O)N(C)[C@H]3CC[C@@H](C)CN(C3=O)[C@@H](Cc3ccc(C(F)(F)F)cc3)C(=O)N(C)CC(=O)N[C@@H](CCc3cc(F)c(C(F)(F)F)c(F)c3)C(=O)N2C1 [PP1371] | A (a compound having 10 or more and less than 20 is denoted as A) | 0.077 nM | 5.1 nM | B (a compound having 3 or more and less than 10 is denoted as B) |
| CCO[C@@H]1C[C@H]2C(=O)NC3(CCC3)C(=O)N(C)[C@@H](C3CCCC3)C(=O)N(C)[C@H](C(=O)N3CCOCC3)CC(=O)N(C)[C@@H](CC)C(=O)N[C@@H]([C@@H](C)CC)C(=O)N(C)CC(=O)N(C)[C@H]3CC[C@@H](C)CN(C3=O)[C@@H](Cc3ccc(C(F)(F)F)cc3)C(=O)N(C)CC(=O)N[C@@H](CCc3cc(F)c(C(F)(F)F)c(F)c3)C(=O)N2C1 [PP1372] | B (a compound having 3 or more and less than 10 is denoted as B) | 0.078 nM | 5 nM | B (a compound having 3 or more and less than 10 is denoted as B) |
| CCO[C@@H]1C[C@H]2C(=O)NC3(CCC3)C(=O)N(C)[C@@H](C3CCCC3)C(=O)N(C)[C@H](C(=O)N3CCOCC3)CC(=O)N(C)[C@@H](CC(C)C)C(=O)N[C@@H]([C@@H](C)CC)C(=O)N3CC[C@H]3C(=O)N(C)[C@H]3CC[C@@H](C)CN(C3=O)[C@@H](Cc3ccc(C(F)(F)F)cc3)C(=O)N(C)CC(=O)N[C@@H](CCc3cc(F)c(C(F)(F)F)c(F)c3)C(=O)N2C1 [PP1373] | B (a compound having 3 or more and less than 10 is denoted as B) | 0.35 nM | 12.2 nM | B (a compound having 3 or more and less than 10 is denoted as B) |
| CCO[C@@H]1C[C@H]2C(=O)NC3(CCC3)C(=O)N(C)[C@@H](C3CCCC3)C(=O)N(C)[C@H](C(=O)N3CCOCC3)CC(=O)N(C)[C@@H](CC)C(=O)N[C@@H]([C@@H](C)CC)C(=O)N3CC[C@H]3C(=O)N(C)[C@H]3CC[C@@H](C)CN(C3=O)[C@@H](Cc3ccc(C(F)(F)F)cc3)C(=O)N(C)CC(=O)N[C@@H](CCc3ccc(C(F)(F)F)c(Cl)c3)C(=O)N2C1 [PP1375] | B (a compound having 3 or more and less than 10 is denoted as B) | 0.23 nM | 11.5 nM | B (a compound having 3 or more and less than 10 is denoted as B) |
| CCO[C@@H]1C[C@H]2C(=O)NC3(CCCC3)C(=O)N(C)[C@@H](C3CCCC3)C(=O)N(C)[C@H](C(=O)N(C)C)CC(=O)N(C)[C@@H](CC)C(=O)N[C@@H]([C@@H](C)CC)C(=O)N(C)CC(=O)N(C)[C@H]3CC[C@@H](C)CN(C3=O)[C@@H](Cc3ccc(C(F)(F)F)cc3)C(=O)N(C)CC(=O)N[C@@H](CCc3ccc(C(F)(F)F)c(Cl)c3)C(=O)N2C1 [PP1376] | B (a compound having 3 or more and less than 10 is denoted as B) | 0.037 nM | 3.5 nM | B (a compound having 3 or more and less than 10 is denoted as B) |
